In brackets after ≈: the same amount, converted by molar mass.

One series relates to SUM149PT. As to the kind of experiment: Antiproliferative activity against human SUM149PT cells assessed as inhibition of cell growth incubated for 7 days by CellTiter-Glo reagent based luminescence analysis. Particulars: 168 h. The class given is functional.
For series [1], the target named is Cyclin-dependent kinase 13/Cyclin-K (Homo sapiens, UniProt Q14004). In words: Inhibition of CDK13/Cyclin K (unknown origin) using pS7-CTD peptide and ATP as substrate incubated for 120 mins by ADP-Glo reagent based luminescence analysis. The class given is protein-complex assay. A general note: ADP-Glo first removes unused ATP, then detects ADP through luciferase.

Another series concerns the target CDK12/Cyclin K (Homo sapiens, UniProt Q9NYV4). As to the kind of experiment: Inhibition of CDK12/Cyclin K (unknown origin) using pS7-CTD peptide and ATP as substrate incubated for 120 mins by ADP-Glo reagent based luminescence analysis. The class given is protein-complex assay.
A short description of series [2]: Volume of distribution at steady state in CD-1 mouse at 1 mg/kg, iv measured for 24 hrs by LC-MS/MS analysis. Particulars: in vivo, read-out: Vdss. The format is ADME, organism-based.
Series [3] in a line: Kinetic solubility of the compound in phosphate buffer at pH 7.4 measured after 24 hrs by HPLC-UV analysis. Particulars: read-out: Kinetic_solubility. The class given is physicochemical.
The nature of series [4]: Permeability of the compound in human Caco-2 cells at 2 uM incubated for 2 hrs by LC-MS/MS analysis. The format is ADME, cell-based. Particulars: read-out: permeability.
The nature of series [5]: Toxicity against Balb/c mouse xenografted with human SUM149PT cells assessed as reduction in body weight at 20 mg/kg, po administered once daily via gavage for 2 days and measured after second dose. The class given is organism-based. The arrangement: scale not given: the % may be the effect or the level left. Particulars: in vivo, 48 h, time 2 day. In general terms: In xenograft studies the graft and the host belong to different species.

A short description of series [6]: GSH reactivity assessed as half life to adduct formation at 10 uM by LC-MS/MS analysis. The format is physicochemical.
A short description of series [7]: Protein binding in mouse plasma assessed as free fraction at 400 uM incubated for 4 hrs by equilibrium dialysis method based LC-MS/MS analysis. The format is ADME, cell-free.
Series [8] can be described thus: GSH reactivity assessed as half life to adduct formation at 0.1 uM by LC-MS/MS analysis. The format is physicochemical.
Series [9] is described as follows: GSH reactivity assessed as half life to adduct formation at 1 uM by LC-MS/MS analysis. The class given is physicochemical.
The nature of series [10]: Protein binding in human plasma assessed as free fraction at 400 uM incubated for 4 hrs by equilibrium dialysis method based LC-MS/MS analysis. The class given is ADME, cell-free. In general terms: In equilibrium dialysis only unbound substance equilibrates across the membrane.
Series [11] is described as follows: Half life in CD-1 mouse at 5 mg/kg, po measured for 24 hrs by LC-MS/MS analysis. Particulars: in vivo. The class given is ADME, organism-based.
A short description of series [12]: AUC (0 to infinity) in CD-1 mouse at 1 mg/kg, iv by LC-MS/MS analysis. The format is ADME, organism-based. Particulars: in vivo.
The nature of series [13]: Oral bioavailability in CD-1 mouse at 5 mg/kg measured for 24 hrs by LC-MS/MS analysis. The class given is ADME, organism-based. Particulars: in vivo.
Series [14] in a line: Cmax in CD-1 mouse at 5 mg/kg, po measured for 24 hrs by LC-MS/MS analysis. The format is ADME, organism-based. Particulars: in vivo.
A short description of series [15]: Clearance in CD-1 mouse at 1 mg/kg, iv measured for 24 hrs by LC-MS/MS analysis. The format is ADME, organism-based. Particulars: in vivo.
Series [16] in a line: AUC (0 to infinity) in CD-1 mouse at 5 mg/kg, po by LC-MS/MS analysis. The format is ADME, organism-based. Particulars: in vivo.

Sequence of CDK12/Cyclin K (O75909 whole entry): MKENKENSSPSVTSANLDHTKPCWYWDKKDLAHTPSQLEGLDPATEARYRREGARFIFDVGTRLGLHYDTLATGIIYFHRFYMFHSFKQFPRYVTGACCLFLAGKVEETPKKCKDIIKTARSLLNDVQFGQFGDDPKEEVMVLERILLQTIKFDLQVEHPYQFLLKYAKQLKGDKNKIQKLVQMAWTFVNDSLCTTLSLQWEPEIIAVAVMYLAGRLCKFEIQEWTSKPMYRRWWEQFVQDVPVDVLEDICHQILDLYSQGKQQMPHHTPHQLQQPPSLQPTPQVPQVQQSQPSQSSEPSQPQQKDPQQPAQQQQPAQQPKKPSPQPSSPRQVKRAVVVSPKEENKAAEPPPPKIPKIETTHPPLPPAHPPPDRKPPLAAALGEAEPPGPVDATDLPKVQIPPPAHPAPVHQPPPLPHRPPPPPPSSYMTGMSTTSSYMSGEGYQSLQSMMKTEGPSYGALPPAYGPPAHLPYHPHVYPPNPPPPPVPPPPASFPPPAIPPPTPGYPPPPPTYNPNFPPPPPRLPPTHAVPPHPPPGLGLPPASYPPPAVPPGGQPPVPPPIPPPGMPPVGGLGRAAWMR
Sequence of CDK12/Cyclin K (Q9NYV4 whole entry): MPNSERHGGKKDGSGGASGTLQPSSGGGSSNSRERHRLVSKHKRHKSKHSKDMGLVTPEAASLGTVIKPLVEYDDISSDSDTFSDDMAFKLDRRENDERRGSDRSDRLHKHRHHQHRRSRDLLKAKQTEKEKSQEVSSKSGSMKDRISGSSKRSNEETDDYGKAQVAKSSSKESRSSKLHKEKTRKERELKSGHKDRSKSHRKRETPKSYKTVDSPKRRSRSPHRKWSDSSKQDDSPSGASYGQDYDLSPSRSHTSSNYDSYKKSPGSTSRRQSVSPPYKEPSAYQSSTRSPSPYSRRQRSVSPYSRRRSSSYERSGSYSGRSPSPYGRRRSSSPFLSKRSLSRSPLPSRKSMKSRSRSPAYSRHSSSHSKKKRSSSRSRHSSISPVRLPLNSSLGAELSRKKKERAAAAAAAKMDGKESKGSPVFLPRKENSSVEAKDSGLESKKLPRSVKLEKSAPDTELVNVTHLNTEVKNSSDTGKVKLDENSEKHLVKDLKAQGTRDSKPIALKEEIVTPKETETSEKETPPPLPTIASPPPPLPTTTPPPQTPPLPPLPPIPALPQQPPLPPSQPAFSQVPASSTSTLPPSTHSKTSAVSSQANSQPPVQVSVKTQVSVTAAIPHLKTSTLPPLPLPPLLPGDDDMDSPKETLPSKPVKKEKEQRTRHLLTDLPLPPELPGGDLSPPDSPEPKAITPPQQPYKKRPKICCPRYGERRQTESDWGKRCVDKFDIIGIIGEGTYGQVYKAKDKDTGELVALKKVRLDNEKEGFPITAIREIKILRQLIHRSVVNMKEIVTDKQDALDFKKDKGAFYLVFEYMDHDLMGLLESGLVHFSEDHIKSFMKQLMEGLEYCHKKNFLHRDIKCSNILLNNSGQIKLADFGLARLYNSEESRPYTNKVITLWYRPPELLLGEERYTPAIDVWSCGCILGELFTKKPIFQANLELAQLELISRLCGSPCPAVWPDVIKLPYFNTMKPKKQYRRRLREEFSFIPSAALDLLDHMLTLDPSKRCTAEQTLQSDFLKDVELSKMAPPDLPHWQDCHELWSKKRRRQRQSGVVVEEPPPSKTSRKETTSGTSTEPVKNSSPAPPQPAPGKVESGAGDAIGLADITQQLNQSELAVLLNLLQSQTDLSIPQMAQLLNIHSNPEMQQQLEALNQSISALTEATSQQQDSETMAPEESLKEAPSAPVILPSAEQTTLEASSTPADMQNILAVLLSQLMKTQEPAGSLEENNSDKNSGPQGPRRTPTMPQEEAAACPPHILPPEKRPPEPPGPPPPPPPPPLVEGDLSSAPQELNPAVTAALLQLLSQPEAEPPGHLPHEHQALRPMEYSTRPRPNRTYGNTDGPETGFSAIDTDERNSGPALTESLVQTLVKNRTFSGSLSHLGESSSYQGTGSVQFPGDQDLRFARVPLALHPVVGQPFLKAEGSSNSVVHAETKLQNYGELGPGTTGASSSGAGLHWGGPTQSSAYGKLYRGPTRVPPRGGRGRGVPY
Sequence of Cyclin-dependent kinase 13/Cyclin-K (Q14004 whole entry): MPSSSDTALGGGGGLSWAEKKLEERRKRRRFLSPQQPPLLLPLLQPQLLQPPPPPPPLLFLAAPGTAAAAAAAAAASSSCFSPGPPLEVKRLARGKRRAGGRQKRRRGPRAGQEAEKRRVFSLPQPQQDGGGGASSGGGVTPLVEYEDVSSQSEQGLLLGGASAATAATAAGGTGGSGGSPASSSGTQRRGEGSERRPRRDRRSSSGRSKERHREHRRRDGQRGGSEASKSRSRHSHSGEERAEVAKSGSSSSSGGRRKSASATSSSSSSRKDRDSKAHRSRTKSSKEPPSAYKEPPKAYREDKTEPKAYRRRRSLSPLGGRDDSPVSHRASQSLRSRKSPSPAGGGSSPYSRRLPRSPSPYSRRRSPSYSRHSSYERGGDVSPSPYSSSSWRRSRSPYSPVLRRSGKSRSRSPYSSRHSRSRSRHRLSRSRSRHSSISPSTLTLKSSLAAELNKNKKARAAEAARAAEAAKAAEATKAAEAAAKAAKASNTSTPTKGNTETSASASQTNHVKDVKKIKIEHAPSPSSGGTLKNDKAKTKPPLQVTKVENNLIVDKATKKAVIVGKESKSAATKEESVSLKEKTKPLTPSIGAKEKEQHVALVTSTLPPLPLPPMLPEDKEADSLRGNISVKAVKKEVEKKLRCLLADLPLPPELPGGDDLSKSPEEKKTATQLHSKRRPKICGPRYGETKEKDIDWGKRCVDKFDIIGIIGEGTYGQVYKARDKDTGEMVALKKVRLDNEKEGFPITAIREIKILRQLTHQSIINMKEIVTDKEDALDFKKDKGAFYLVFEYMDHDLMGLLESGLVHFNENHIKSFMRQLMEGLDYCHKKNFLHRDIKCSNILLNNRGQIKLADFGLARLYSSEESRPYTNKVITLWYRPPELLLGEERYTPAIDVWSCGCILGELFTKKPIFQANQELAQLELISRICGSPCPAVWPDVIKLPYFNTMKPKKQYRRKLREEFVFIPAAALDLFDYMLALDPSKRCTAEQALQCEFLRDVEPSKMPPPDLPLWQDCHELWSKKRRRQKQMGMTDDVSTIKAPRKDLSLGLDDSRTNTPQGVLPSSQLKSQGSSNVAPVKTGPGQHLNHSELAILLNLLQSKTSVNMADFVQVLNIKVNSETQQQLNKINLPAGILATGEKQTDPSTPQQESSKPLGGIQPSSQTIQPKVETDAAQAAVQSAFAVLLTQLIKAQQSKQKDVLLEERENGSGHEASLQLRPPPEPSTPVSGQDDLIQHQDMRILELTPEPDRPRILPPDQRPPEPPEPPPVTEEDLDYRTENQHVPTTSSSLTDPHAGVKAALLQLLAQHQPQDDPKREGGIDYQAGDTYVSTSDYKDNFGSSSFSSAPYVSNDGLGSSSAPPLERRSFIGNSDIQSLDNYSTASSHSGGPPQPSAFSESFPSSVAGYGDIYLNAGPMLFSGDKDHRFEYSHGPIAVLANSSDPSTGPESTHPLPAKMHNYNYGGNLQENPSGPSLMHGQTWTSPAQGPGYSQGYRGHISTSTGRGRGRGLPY
Sequence of Cyclin-dependent kinase 13/Cyclin-K (O75909 whole entry, further chain): as the sequence (O75909 whole entry) above

`C=CC(=O)N1CCc2c(nc(N3CCCC3=O)nc2N2CC[C@@H](Nc3ncc(Cl)c(OC)n3)C2)C1`: the IC50 (commonly the concentration that gives 50% inhibition) was found to be 457 nM in the series with SUM149PT and 198 nM in series [1].

`C=CC(=O)N1CC2(CCC(C(=O)N3CC[C@@H](Nc4ncc(Cl)c(OC)n4)C3)CC2)C1`: the IC50 turned out to be 669 nM at CDK12/Cyclin K and 756 nM in [1].

`C=CC(=O)N1Cc2ncnc(N3CC[C@@H](Nc4ncc(Cl)c(OC)n4)C3)c2C1`: the IC50 in the series with SUM149PT came to 509 nM; in [1] it was 343 nM.

With `C=CC(=O)N1CCc2c(nc(N3CCN(C)C(=O)C3)nc2N2CC[C@@H](Nc3ncc(Cl)c(OC)n3)C2)C1`, in the series on SUM149PT, the 50% inhibitory concentration (IC50) was found to be 276 nM.

Turning to `C=CC(=O)N1CCC(C(=O)N2CC[C@@H](Nc3ncc(Cl)c(OC)n3)C2)CC1`, the 50% inhibitory concentration (IC50) at CDK12/Cyclin K stood at 2270 nM; in [1] it was 1760 nM.

Regarding `C=CC(=O)NC12CC(C(=O)N3CC[C@@H](Nc4ncc(Cl)c(OC)n4)C3)(C1)C2`, the IC50 on CDK12/Cyclin K was found to be 2410 nM; in series [1], 2750 nM.

Consider `C=CC(=O)[C@H]1CC[C@H](C(=O)N2CC[C@@H](Nc3ncc(Cl)c(OC)n3)C2)CC1`, for which the IC50 at CDK12/Cyclin K turned out to be 3740 nM; in series [1] it was 2740 nM.

With `C=CC(=O)N1CCc2c(ccnc2N2CC[C@@H](Nc3ncc(Cl)c(OC)n3)C2)C1`, the values for the IC50 (in the series with SUM149PT; in [1]) were 317 nM and 107 nM, respectively.

Turning to `C=CC(=O)Nc1ccc(C(=O)N2CC[C@@H](Nc3ncc(Cl)c(OC)n3)C2)cc1`, the Vd in series [2] stood at 0.66 L/kg. In series [3], the solubility kinetic at 24 h came out at 48.2 µg/mL (≈ 120 µM). The Papp at 2 h, 2 µM in [4] is 2.87 ×10⁻⁶ cm/s. Also, the results for the IC50 (on CDK12/Cyclin K; with SUM149PT; in series [1]) were 6.9 nM, 2.64 nM and 9.22 nM, respectively. The Activity in series [5] is listed as 10%. The t1/2 is reported as 43 min in series [6], 39.7 min in [8] and 40.2 min in [9]. Moreover, the fraction unbound – broadly, the share of the substance not bound to proteins or other matrix – at 4 h, 400 µM in series [7] amounted to 0.038; in [10], 0.003.

In series [1], `C=CC(=O)N1Cc2ccnc(N3CC[C@@H](Nc4ncc(Cl)c(OC)n4)C3)c2C1` displayed an IC50 of 76.1 nM.

With `C=CC(=O)N1CCc2c(nc(OC)nc2N2CC[C@@H](Nc3ncc(Cl)c(OC)n3)C2)C1`, the IC50 in the series on SUM149PT amounted to 336 nM; in [1], 95.4 nM.

Consider `CC#CC(=O)N1CCc2c(ncnc2N2CC[C@@H](Nc3ncc(Cl)c(OC)n3)C2)C1`, for which, in [2], the Vd came to 0.35 L/kg. Further, the half-life (in general, the time in which the quantity being followed falls by half) in [11] was 15 min. Also, the IC50 with SUM149PT was 226 nM; in series [1], 235 nM. Also, the t1/2 in series [6] was 379.4 min; in series [8], 315.5 min; in [9], 324.4 min. Also, the AUC(0-inf) (commonly total exposure, with the tail of the curve extrapolated) was determined as 93.8 ng·h/mL in series [12] and 54.7 ng·h/mL in [16]. The bioavailability (usually dose-corrected exposure relative to a reference, in per cent) in [13] turned out to be 11.2%. The concentration in [14] peaked (Cmax) at 101 ng/mL. For the same molecule, in series [15], the clearance (in general, the volume of plasma or blood freed of the substance per unit of time) was 179 mL/min/kg.

Consider `C=CC(=O)N1CCc2c(nc(N3CCOCC3)nc2N2CC[C@@H](Nc3ncc(Cl)c(OC)n3)C2)C1`, for which the results for the IC50 (in the series on SUM149PT; in series [1]) were 532 nM and 165 nM, respectively.

For the molecule `C=CC(=O)N1CCc2c(nc(C)nc2N2CC[C@@H](Nc3ncc(Cl)c(OC)n3)C2)C1`, the IC50 turned out to be 155 nM with SUM149PT and 74.8 nM in [1].
